Counter-ions that a name gives are not always drawn.
system: MV-4-11 cells; assay: Cell viability assay (CellTiter-Glo), MV-4-11; assay type: cell-based; conditions: Homo sapiens, MV4-11, 24 hours incubation, 1% FBS, read-out: Average pIC50 by molecule MV-4-11 (converted)
Text: The effect of various compounds of the invention on the viability of OPM-2, MV-4-11 and ARH-77 cell lines was investigated, using the CTG protocol described below.
OPM-2 and MV-4-11 cell lines are derived from multiple myeloma and acute myeloid leukaemia, respectively. Both cell lines are described in the literature as MCL-1 dependent lines, as opposed to lymphoblast-like ARH-77 cell line, which is described as independent of MCL-1 (Tron A E et al. Nat Commun. 2018; 9: 5341; Caenepeel S et al. Cancer Discov. 2018 December; 8(12):1582-1597).
Cells (OPM-2, MV-4-11 or ARH-77) were seeded on […] in a growth medium with FBS reduced to 1%. Next, compound stocks were pre-diluted in DMSO and added directly to the cells growth medium (final DMSO concentration: 0.5%). Compound concentrations used in this assay: 1/3 dilutions starting at 30 uM (9 to 12 points).
After 24 hours of incubation, cell viability was evaluated using CellTiter-Glo Luminescent Cell Viability Assay (Promega, cat #G7572). Luminescence signal was measured using a CLARIOstar Plus Multi-Mode Microplate Reader (574-590 nm).
Results were normalized to DMSO control.

Question: With Cc1nn(C)c(C)c1-c1c(Cl)ccc2c(CCCOc3cccc4ccccc34)c(C(=O)O)n(CCN3CCN(C(=O)CCc4nc5c(C(=O)NC6CCC(=O)NC6=O)cccc5[nH]4)CC3)c12 (stereo not drawn) [Compound 265] as the molecule, how does the IC50 read?
Answer: ≤ 1 µM

Question: With Cc1nn(C)c(C)c1-c1c(Cl)ccc2c(CCCOc3cccc4ccccc34)c(C(=O)O)n(CCN3CCN(C(=O)COc4cccc5c4C(=O)N(C4CCC(=O)N(C)C4=O)C5=O)CC3)c12 (stereo not drawn) [Compound 205, 6-chloro-1-(2-(4-(2-((2-(1-methyl-2,6-dioxopiperidin-3-yl)-1,3-dioxoisoindolin-4-yl)oxy)acetyl)piperazin-1-yl)ethyl)-3-(3-(naphthalen-1-yloxy)propyl)-7-(1,3,5-trimethyl-1H-pyrazol-4-yl)-1H-indole-2-carboxylic acid] as the molecule, how does the IC50 read?
Answer: ≤ 0.316 µM

target: [MCL-1]-[compound of formula (I)]-[CRBN/DDB1] complex (Homo sapiens, UniProt Q07820+Q96SW2); assay: AlphaLISA dose response ternary complex formation assay; assay type: binding; conditions: read-out: AlphaLISA dose response Average pEC50 by molecule (converted)
Sequence (Q07820 whole entry): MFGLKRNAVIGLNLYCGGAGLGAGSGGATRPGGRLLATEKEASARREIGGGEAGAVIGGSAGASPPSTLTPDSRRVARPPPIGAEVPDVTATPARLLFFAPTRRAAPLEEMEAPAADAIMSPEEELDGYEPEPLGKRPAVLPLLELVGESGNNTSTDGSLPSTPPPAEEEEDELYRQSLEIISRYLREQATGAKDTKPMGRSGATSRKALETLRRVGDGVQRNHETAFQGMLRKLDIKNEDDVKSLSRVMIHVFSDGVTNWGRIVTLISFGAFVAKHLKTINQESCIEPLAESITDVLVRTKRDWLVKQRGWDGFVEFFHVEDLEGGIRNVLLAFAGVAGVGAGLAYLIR
Sequence (Q96SW2 whole entry): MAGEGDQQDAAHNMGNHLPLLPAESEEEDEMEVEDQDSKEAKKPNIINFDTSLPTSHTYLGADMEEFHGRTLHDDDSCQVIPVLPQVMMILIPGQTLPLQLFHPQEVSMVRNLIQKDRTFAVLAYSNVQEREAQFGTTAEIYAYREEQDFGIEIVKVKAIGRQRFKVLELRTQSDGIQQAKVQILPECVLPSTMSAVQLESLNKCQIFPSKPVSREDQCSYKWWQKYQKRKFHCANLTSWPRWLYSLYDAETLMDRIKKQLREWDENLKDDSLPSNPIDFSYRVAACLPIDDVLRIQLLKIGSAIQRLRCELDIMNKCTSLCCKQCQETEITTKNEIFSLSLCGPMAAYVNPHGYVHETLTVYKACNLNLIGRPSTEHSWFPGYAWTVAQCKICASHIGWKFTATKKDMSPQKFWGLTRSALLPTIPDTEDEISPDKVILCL
Sequence (Q16531 whole entry partner): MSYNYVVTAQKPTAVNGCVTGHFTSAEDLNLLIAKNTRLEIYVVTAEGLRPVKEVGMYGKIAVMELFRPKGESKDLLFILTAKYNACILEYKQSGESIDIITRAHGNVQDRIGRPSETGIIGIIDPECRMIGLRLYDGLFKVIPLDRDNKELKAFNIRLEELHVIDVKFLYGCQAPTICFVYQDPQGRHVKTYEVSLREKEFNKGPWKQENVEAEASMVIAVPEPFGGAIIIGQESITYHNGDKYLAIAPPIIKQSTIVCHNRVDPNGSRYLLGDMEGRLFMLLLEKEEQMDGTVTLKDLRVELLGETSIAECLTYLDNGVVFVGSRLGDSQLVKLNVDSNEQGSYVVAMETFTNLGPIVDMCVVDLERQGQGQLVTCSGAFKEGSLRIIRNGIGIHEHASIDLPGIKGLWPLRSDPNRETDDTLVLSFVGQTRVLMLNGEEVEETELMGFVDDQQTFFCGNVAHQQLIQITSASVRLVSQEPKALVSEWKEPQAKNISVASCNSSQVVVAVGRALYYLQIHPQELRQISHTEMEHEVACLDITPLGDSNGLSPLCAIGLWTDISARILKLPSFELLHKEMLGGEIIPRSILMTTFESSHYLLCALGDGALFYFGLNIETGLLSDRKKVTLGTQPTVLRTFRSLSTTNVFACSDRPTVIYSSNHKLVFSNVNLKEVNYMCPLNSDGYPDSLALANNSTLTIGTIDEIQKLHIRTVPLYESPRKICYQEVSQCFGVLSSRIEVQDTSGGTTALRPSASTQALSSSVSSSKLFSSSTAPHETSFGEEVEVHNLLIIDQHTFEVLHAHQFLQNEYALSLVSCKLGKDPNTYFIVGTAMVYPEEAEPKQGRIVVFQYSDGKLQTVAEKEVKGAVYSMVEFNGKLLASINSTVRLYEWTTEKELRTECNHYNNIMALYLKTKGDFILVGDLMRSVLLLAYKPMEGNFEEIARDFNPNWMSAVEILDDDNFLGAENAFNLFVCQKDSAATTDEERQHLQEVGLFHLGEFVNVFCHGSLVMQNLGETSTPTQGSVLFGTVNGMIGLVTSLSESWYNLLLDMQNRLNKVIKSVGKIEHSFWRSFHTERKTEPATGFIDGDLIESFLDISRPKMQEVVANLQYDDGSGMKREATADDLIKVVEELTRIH
Procedure: The effect of the bifunctional compounds of the invention on the formation of a ternary complex composed of [MCL-1]-[compound of formula (I)]-[CRBN/DDB1] was investigated with two methods: AlphaLISA dose response assay or HTRF ternary complex assay.
Two types of protein solution were prepared: • 40 nM biotinylated hMCL-1, 40 μg/ml AlphaScreen Streptavidin-coated Donor Beads in PBS buffer with 0.1% Tween-20 and 1 mM DTT, • 200 nM 6×His-CRBN/Strep-DDB1, 40 μg/ml AlphaLISA Anti-6×His Acceptor beads in PBS buffer with 0.1% Tween-20 and 1 mM DTT.
The prepared solutions were incubated at room temperature for 45 min and then the solution containing the donor beads was mixed with the solution containing the acceptor beads.
The tested compounds were dispensed onto a white 384-well AlphaPlate 384 SW. DMSO was backfilled to all wells, resulting in a final DMSO content of 2%. Wells containing only DMSO served as background. Next, 10 μl of solution with donor and acceptor beads was added to the wells.
The plate was sealed with transparent film and shaken using a VibroTurbulator for 60 see at room temperature, level 3. The plate was then spun down shortly (10 s, 1000 rcf, room temperature) and incubated at 25° C. for 30 min.
The read-out was performed with PerkinElmer Enspire Multimode Plate Reader (method for AlphaLISA 384-well low volume, Filterset: λexc=680 nm, λem=615 nm).
The results were analyzed as follows: • 1) an average of luminescence for background signal was calculated and used as a negative control; • 2) average of the maximum measured luminescence for 233 was calculated and used as an internal positive control; • 3) raw luminescence values were normalized against positive and negative controls; • 4) concentration points above the hook point were excluded; • 5) EC50 and pEC50 values were determined.

Question: How did the EC50 turn out when Cc1cc(OCCCc2c(C(=O)O)n(CCN3CCN(C(=O)CNc4cccc5c4C(=O)N(C4CCC(=O)NC4=O)C5=O)CC3)c3c(-c4c(C)nn(C)c4C)cccc23)cc(C)c1Cl (stereo not drawn) [Compound 233, 3-(3-(4-chloro-3,5-dimethylphenoxy)propyl)-1-(2-(4-((2-(2,6-dioxopiperidin-3-yl)-1,3-dioxoisoindolin-4-yl)glycyl)piperazin-1-yl)ethyl)-7-(1,3,5-trimethyl-1H-pyrazol-4-yl)-1H-indole-2-carboxylic acid] was run?
Answer: < 1 µM

Question: Cc1nn(C)c(C)c1-c1c(Cl)ccc2c(CCCOc3cccc4ccccc34)c(C(=O)O)n(CCN3C[C@@H]4C[C@H]3CN4C(=O)COc3cccc4c3CN(C3CCC(=O)NC3=O)C4=O)c12 (stereo partly drawn) [Compound 209, 6-chloro-1-{2-[(1S,4S)-5-(2-{[2-(2,6-dioxopiperidin-3-yl)-1-oxo-2,3-dihydro-1H-isoindol-4-yl]oxy}acetyl)-2,5-diazabicyclo[2.2.1]heptan-2-yl]ethyl}-3-[3-(naphthalen-1-yloxy)propyl]-7-(1,3,5-trimethyl-1H-pyrazol-4-yl)-1H-indole-2-carboxylic acid] was tested. Which EC50 did it give?
Answer: < 0.1 µM

Question: Cc1nn(C)c(COc2ccc(N3CCN(S(=O)(=O)N(C)C)CC3)cc2)c1-c1cccc2c(CCCOc3cccc4ccccc34)c(C(=O)O)n(CCN3CCN(CCCOCCOCCNc4cccc5c4C(=O)N(C4CCC(=O)NC4=O)C5=O)CC3)c12 (stereo not drawn) [Compound 247, 7-(5-((4-(4-(N,N-dimethylsulfamoyl)piperazin-1-yl)phenoxy)methyl)-1,3-dimethyl-1H-pyrazol-4-yl)-1-(2-(4-(3-(2-(2-((2-(2,6-dioxopiperidin-3-yl)-1,3-dioxoisoindolin-4-yl)amino)ethoxy)ethoxy)propyl)piperazin-1-yl)ethyl)-3-(3-(naphthalen-1-yloxy)propyl)-1H-indole-2-carboxylic acid trifluoroacetate] was tested. Which EC50 did it give?
Answer: < 1 µM

Question: Which EC50 does the source give for Cc1nn(CCCOCCOCCNc2cccc3c2C(=O)N(C2CCC(=O)NC2=O)C3=O)c(C)c1-c1cccc2c(CCCOc3cccc4ccccc34)c(C(=O)O)n(CCN3CCOCC3)c12 (stereo not drawn) [Compound 232, 7-(1-(3-(2-(2-((2-(2,6-dioxopiperidin-3-yl)-1,3-dioxoisoindolin-4-yl)amino)ethoxy)ethoxy)propyl)-3,5-dimethyl-1H-pyrazol-4-yl)-1-(2-morpholinoethyl)-3-(3-(naphthalen-1-yloxy)propyl)-1H-indole-2-carboxylic acid] here?
Answer: < 1 µM

Question: With Cc1c2c(nn1C)CSCc1cc(n(C)n1)CSc1cc(c3ccccc3c1)OCCCc1c(C(=O)NS(=O)(=O)CCNC(=O)CCOCCOCCNc3cccc4c3C(=O)N(C3CCC(=O)NC3=O)C4=O)n(C)c3c-2c(Cl)ccc13 (stereo not drawn) [Compound 261, N-{2-[({17-chloro-5,13,14,22-tetramethyl-28-oxa-2,9-dithia-5,6,12,13,22-pentaazaheptacyclo[27.7.1.1^4,^7.0^11,^15.0,^16,^21.0^20,^24.0^30,^35]octatriaconta-1(37),4(38),6,11,14,16,18,20,23,29,31,33,35-tridecaen-23-yl}formamido)sulfonyl]ethyl}-3-[2-(2-{[2-(2,6-dioxopiperidin-3-yl)-1,3-dioxo-2,3-dihydro-1H-isoindol-4-yl]amino}ethoxy)ethoxy]propanamide] as the molecule, how does the EC50 read?
Answer: < 1 µM

Question: How did the EC50 turn out when Cc1nn(C)c(C)c1-c1c(Cl)ccc2c(CCCOc3cccc4c3C3CCC4C3)c(C(=O)O)n(CCN3CCN(C(=O)COc4cccc5c4CN(C4CCC(=O)NC4=O)C5=O)CC3)c12 (stereo not drawn) [Compound 352, 6-Chloro-1-(2-(4-(2-((2-(2,6-dioxopiperidin-3-yl)-1-oxoisoindolin-4-yl)oxy)acetyl)piperazin-1-yl)ethyl)-3-(3-((1,2,3,4-tetrahydro-1,4-methanonaphthalen-5-yl)oxy)propyl)-7-(1,3,5-trimethyl-1H-pyrazol-4-yl)-1H-indole-2-carboxylic acid] was run?
Answer: < 1 µM

Question: Which EC50 does the source give for Cc1nn(C)c(C)c1-c1c(Cl)ccc2c(CCCOc3cccc4ccccc34)c(C(=O)O)n(CCN3CC4CC(C3)N4C(=O)COc3cccc4c3C(=O)N(C3CCC(=O)NC3=O)C4=O)c12 (stereo not drawn) [Compound 208, 6-chloro-1-(2-(6-(2-((2-(2,6-dioxopiperidin-3-yl)-1,3-dioxoisoindolin-4-yl)oxy)acetyl)-3,6-diazabicyclo[3.1.1]heptan-3-yl)ethyl)-3-(3-(naphthalen-1-yloxy)propyl)-7-(1,3,5-trimethyl-1H-pyrazol-4-yl)-1H-indole-2-carboxylic acid] here?
Answer: < 0.1 µM

Question: Which EC50 does the source give for Cc1nn(C)c(C)c1-c1c(Cl)ccc2c(CCCN(C)c3cccc4ccccc34)c(C(=O)O)n(CCN3CCN(C(=O)COc4cccc5c4CN(C4CCC(=O)NC4=O)C5=O)CC3)c12 (stereo not drawn) [Compound 353, 6-Chloro-1-(2-(4-(2-((2-(2,6-dioxopiperidin-3-yl)-1-oxoisoindolin-4-yl)oxy)acetyl)piperazin-1-yl)ethyl)-3-(3-(methyl(naphthalen-1-yl)amino)propyl)-7-(1,3,5-trimethyl-1H-pyrazol-4-yl)-1H-indole-2-carboxylic acid] here?
Answer: < 1 µM

Question: Cc1nn(C)c(COc2ccc(N3CCN(S(=O)(=O)N(C)C)CC3)cc2)c1-c1cccc2c(CCCOc3cccc4ccccc34)c(C(=O)O)n(CCN3CCN(C(=O)COc4ccc5c(c4)C(=O)N(C4CCC(=O)NC4=O)C5=O)CC3)c12 (stereo not drawn) [Compound 248, 7-(5-((4-(4-(N,N-dimethylsulfamoyl)piperazin-1-yl)phenoxy)methyl)-1,3-dimethyl-1H-pyrazol-4-yl)-1-(2-(4-(2-((2-(2,6-dioxopiperidin-3-yl)-1,3-dioxoisoindolin-5-yl)oxy)acetyl)piperazin-1-yl)ethyl)-3-(3-(naphthalen-1-yloxy)propyl)-1H-indole-2-carboxylic acid] was tested. Which EC50 did it give?
Answer: < 1 µM

Question: Which EC50 does the source give for Cc1nn(C)c(C)c1-c1c(Cl)ccc2c(CCCOc3cccc4ccccc34)c(C(=O)O)n(CCN3CCN(C(=O)COc4cc(C(F)(F)F)nc5c(C(=O)NC6CCC(=O)NC6=O)scc45)CC3)c12 (stereo not drawn) [Compound 267, 6-chloro-1-(2-{4-[2-({7-[(2,6-dioxopiperidin-3-yl)carbamoyl]-2-(trifluoromethyl)thieno[3,4-b]pyridin-4-yl}oxy)acetyl]piperazin-1-yl}ethyl)-3-[3-(naphthalen-1-yloxy)propyl]-7-(1,3,5-trimethyl-1H-pyrazol-4-yl)-1H-indole-2-carboxylic acid] here?
Answer: < 0.1 µM

Source: US20240294499A1, “TARGETED PROTEIN DEGRADATION USING BIFUNCTIONAL COMPOUNDS THAT BIND UBIQUITIN LIGASE AND TARGET MCL-1 PROTEIN” (Captor Therapeutics S.A., priority 2021, published 2024)
